Source: patent US7332482B2, “Method for treating benign prostatic hyperplasia” (BioXell S.p.A., priority 2003, dated 2008)

Experiments:
AR = target: T1, AR (Homo sapiens, UniProt P10275); experiment: Luciferase assay in AR-transfected PC3 cells; type: cell-based; parameters: In PC3 cells expressing the full length AR coupled to a luciferase report gene; expressed in transfected cells; host or cells: PC3 (AR-deficient human prostate adenocarcinoma), stably transfected with p5HbhAR-A; conditions: increasing concentrations, alone or with DHT 3 nM
T1 sequence (P10275 1-920): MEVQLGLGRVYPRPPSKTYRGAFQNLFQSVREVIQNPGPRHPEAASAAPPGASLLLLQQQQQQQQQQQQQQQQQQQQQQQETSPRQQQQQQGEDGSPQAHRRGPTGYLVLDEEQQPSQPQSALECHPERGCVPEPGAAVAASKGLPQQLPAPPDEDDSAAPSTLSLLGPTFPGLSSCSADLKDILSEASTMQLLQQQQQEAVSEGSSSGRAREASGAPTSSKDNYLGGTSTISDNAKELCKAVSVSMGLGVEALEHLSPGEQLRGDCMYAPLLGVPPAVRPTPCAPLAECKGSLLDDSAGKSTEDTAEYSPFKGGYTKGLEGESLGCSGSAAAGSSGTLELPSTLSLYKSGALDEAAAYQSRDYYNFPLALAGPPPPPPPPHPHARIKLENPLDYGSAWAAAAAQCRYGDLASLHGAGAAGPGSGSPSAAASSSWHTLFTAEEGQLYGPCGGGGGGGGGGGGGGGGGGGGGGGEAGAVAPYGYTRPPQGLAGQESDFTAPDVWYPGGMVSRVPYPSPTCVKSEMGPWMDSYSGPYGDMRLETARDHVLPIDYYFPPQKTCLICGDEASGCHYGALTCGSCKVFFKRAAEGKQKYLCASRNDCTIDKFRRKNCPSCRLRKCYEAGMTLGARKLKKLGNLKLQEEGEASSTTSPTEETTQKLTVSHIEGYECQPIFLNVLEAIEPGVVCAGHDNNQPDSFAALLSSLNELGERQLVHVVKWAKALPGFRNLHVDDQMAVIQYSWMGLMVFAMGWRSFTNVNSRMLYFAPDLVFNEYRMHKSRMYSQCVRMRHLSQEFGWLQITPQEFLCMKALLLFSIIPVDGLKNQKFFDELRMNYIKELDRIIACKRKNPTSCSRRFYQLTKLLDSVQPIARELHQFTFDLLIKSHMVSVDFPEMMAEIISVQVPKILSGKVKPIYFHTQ
Protocol: PC3 cells stably transfected with human AR were plated in 24-well plates at a density of 2×10^4 in Ham's F12 plus 10% FCS. […] Transfected cells incubated with ethanol only served as positive controls.
The Luciferase assay was performed with a Berthold luminometer according to the manufacturer's instructions (Luciferase Assay System, Promega, Milan, Italy). The cells were lysed directly in the plate with 200 μl of lysis buffer. Luciferase activity was measured on 20 μl of cell lysate for 10 s after addition of 100 μl of luciferine. Total protein measurement was performed on 20 μl of cell lysate. At least three independent assays were done in duplicate.

bladder = experiment: Bladder outlet obstruction (BOO) rat model, cystometry and bladder weight; type: in vivo; conditions: BOO rats, 150 μg/Kg daily, 2 weeks
Protocol: • Female Sprague-Dawley rats, weighing 200-250 g 1.2. Grouping • Group A: BOO rats, treated with Compound A over 2 weeks, beginning at day 1 after creation of the obstruction (n=12) • Group B: BOO rats, treated with vehicle over 2 weeks, beginning at day 1 after creation of the obstruction (n=12) • Group C: Sham operated rats, treated with Compound A over 2 weeks, beginning at day 1 after surgery (n=12) 1.3. Studies: • a) Cystometry (˜18 hours after last administration of the drug/vehicle, 12 hours after removal of the obstructing ligature) under conscious conditions. • b) Measurements of bladder weight • c) In vitro investigations 2. Methods 2.1. Bladder Outlet Obstruction (BOO):
The bladder and urethrovesical junction were exposed through a lower abdominal midline incision. A 0.9 mm metal rod was placed alongside the proximal urethra and a 3-0 silk ligature was tied tightly around the urethra and the rod, which was consequently be removed. Sham surgery was be performed accordingly, without placing the ligature. After 13 days the ligature was be removed and a catheter was be inserted into the bladder dome and tunneled subcutaneously.
The following morning after insertion of the catheter, the cystometric investigation was performed without any anesthesia or restraint in a metabolic cage. The amount of voided urine was measured by means of a fluid collector, connected to a force displacement transducer. The bladder was continuously filled with saline at room temperature. The catheter was also connected to a pressure transducer. After a stabilization period of 30-60 minutes, when reproducible voiding patterns are achieved, the following parameters were recorded over a period of 30 minutes: Basal bladder pressure, micturition pressure, threshold pressure, micturition interval and volume, and non-voiding contractions. The amount of residual urine was investigated manually 3 times, at the end of the cystometry. Bladder capacity was calculated based on the measured values.
The validated bladder outlet obstruction rat model described above was used to test the ability of Compound A to control and treat bladder dysfunction. The objective was to evaluate whether a vitamin D3 analogue (1-alpha-fluoro-25-hydroxy-16,23e-diene-26,27-bishomo-20-epi-cholecalciferol—compound “A”) at the dose of 150 μg/Kg/daily) can prevent bladder hypertrophy and bladder dysfunction such as bladder overactivity.
In this model a ligature was surgically placed around the outlet of the catheterized bladder, so that when the catheter was removed, the bladder experienced increased urethral resistance. The rats underwent continuous cystometry to evaluate bladder function. In addition the contractile properties of isolated bladder preparation in response to nerve stimulation and exogenous stimuli in vitro were investigated under electrical field stimulation (EFS).
The following cystometric parameters were investigated (see FIGS. 12-16): • micturition pressure (the maximum bladder pressure during micturition), • bladder capacity (residual volume after voiding plus the volume of saline infused to induce the void) • micturition volume (volume of the expelled urine) • residual urine (bladder capacity minus micturition volume) and • frequency and amplitude of spontaneously occurring changes intravesical pressure (non-voiding contractions).

Structure (SMILES): C=C1/C(=C\C=C2/CCC[C@]3(C)C([C@@H](C)C/C=C/C(O)(CC)CC)=CC[C@@H]23)C[C@@H](O)C[C@@H]1F [Compound A, 1-alpha-fluoro-25-hydroxy-16,23E-diene-26,27-bishomo-20-epi-cholecalciferol]
- effect on AR-mediated luciferase activity (agonist/antagonist) (AR): neither stimulated nor inhibited
- bladder weight (bladder): slight decrease
- micturition pressure (bladder): significant differences versus vehicle
- residual urine (bladder): absent
- spontaneous non-voiding contraction amplitude (bladder): significant differences versus vehicle
- spontaneous non-voiding contraction frequency (bladder): significant differences versus vehicle
